The values below come from patent publication US8779142B2, “Azabicyclo compound and salt thereof” (Taiho Pharmaceutical Co., Ltd., priority 2009, dated 2014).

Broadly, the pIC50 is the IC50 on a negative log10 scale, so that one unit is a factor of ten.

One assay deals with SK-BR-3 cells. Nature of the assay: Measurement of cell growth inhibition (crystal violet staining method). The class given is cell-based. The conditions noted are these: Homo sapiens.
Assay [1] addresses human HSP90 alpha protein (HSP90 N-terminal protein, amino acids 2-236) (Homo sapiens (Human), UniProt P07900). The experiment in a line: Measurement of HSP90-binding activity (AlphaScreen competitive assay, biotin-labeled geldanamycin). The following applies: concentration inhibiting binding of biotin-labeled geldanamycin (40 nM) to purified HSP90 to 50% of control; read-out: HSP-binding activity IC50. (Alpha assays give light when donor and acceptor beads are brought close together.)

The mark [2] stands for this setting: breast cancer SK-BR-3 cells, 72 hr culture with test substance.

pIC50: −log10 of the molar value.

`CC(C)c1nn(-c2ccc(C(N)=O)c(N[C@H]3CC[C@H](O)CC3)c2)c2nccc(-n3cnc(-c4ccccc4)c3)c12` [Example 37, 2-(Trans-4-hydroxycyclohexylamino)-4-{3-isopropyl-4-(4-phenyl-1H-imidazol-1-yl)-1H-pyrazolo[3,4-b]pyridin-1-yl}benzamide]: the pIC50 in the assay with SK-BR-3 cells (setting [2]) was 7.00; in assay [1], 6.60.

As for `Cn1cc(-c2cn(-c3ccnc4c3c(C(F)(F)F)nn4-c3ccc(C(N)=O)cc3C#N)cn2)cn1` [Example 169, 3-Cyano-4-{4-(4-(1-methyl-1H-pyrazol-4-yl)-1H-imidazol-1-yl)-3-(trifluoromethyl)-1H-pyrazolo[3,4-b]pyridin-1-yl}benzamide], the pIC50 was 6.57 in the assay on SK-BR-3 cells (setting [2]) and 6.64 in assay [1].

`CSCCCNc1cc(-n2nc(C(C)C)c3c(-c4cnc5ccccc5c4)ccnc32)ccc1C(N)=O` [Example 23, 4-{3-Isopropyl-4-(quinolin-3-yl)-1H-pyrazolo[3,4-b]pyridin-1-yl}-2-{3-(methylthio)propylamino}benzamide]: the pIC50 in the assay with SK-BR-3 cells (setting [2]) was 6.72; in assay [1] it was 6.31.

With `CC(C)Nc1cc(C(N)=O)ccc1-n1nc(C(C)C)c2c(-n3cnc(-c4cnn(C)c4)c3)ccnc21` [Example 120, 4-{3-Isopropyl-4-(4-(1-methyl-1H-pyrazol-4-yl)-1H-imidazol-1-yl)-1H-pyrazolo[3,4-b]pyridin-1-yl}-3-(isopropylamino)benzamide], the values for the pIC50 (in the assay on SK-BR-3 cells (setting [2]); in assay [1]) were 6.85 and 6.70, respectively.

On to `COCCNc1cc(C(N)=O)ccc1-n1nc(C(F)(F)F)c2c(-n3cnc(-c4cnn(C)c4)c3)ccnc21` [Example 168, 3-(2-Methoxyethylamino)-4-{4-(4-(1-methyl-1H-pyrazol-4-yl)-1H-imidazol-1-yl)-3-(trifluoromethyl)-1H-pyrazolo[3,4-b]pyridin-1-yl}benzamide], for which the negative logarithm of the IC50 (pIC50) is 7.22 in the assay with SK-BR-3 cells (setting [2]) and 7.15 in assay [1].

Consider `Cn1cc(-c2cn(-c3ccnc4c3c(C(F)(F)F)nn4-c3ccc(C(N)=O)cc3N)cn2)cn1` [Example 158, 3-Amino-4-{4-(4-(1-methyl-1H-pyrazol-4-yl)-1H-imidazol-1-yl)-3-(trifluoromethyl)-1H-pyrazolo[3,4-b]pyridin-1-yl}benzamide], for which the pIC50 is 6.70 with SK-BR-3 cells (setting [2]) and 7.00 in assay [1].

For the compound `CC(C)c1nn(-c2ccc(C(N)=O)c(Nc3ccc(C(=O)N4CCCC4)cc3)c2)c2nccc(-c3cnc4ccccc4c3)c12` [Example 34, 4-{3-Isopropyl-4-(quinolin-3-yl)-1H-pyrazolo[3,4-b]pyridin-1-yl}-2-{4-(pyrrolidine-1-carbonyl)phenylamino}benzamide], the pIC50 was 7.30 in the assay with SK-BR-3 cells (setting [2]) and 6.24 in assay [1].

Regarding `Cc1cc(C(N)=O)ccc1-n1nc(C(C)C)c2c(-n3cnc(-c4cccnc4)c3)ccnc21` [Example 135, 4-{3-Isopropyl-4-(4-(pyridin-3-yl)-1H-imidazol-1-yl)-1H-pyrazolo[3,4-b]pyridin-1-yl}-3-methylbenzamide], the pIC50 in the assay with SK-BR-3 cells (setting [2]) is 6.16; in assay [1] it was 6.40.

Regarding `Cn1cc(-c2cn(-c3ccnc4c3c(C(F)(F)F)nn4-c3ccc(C(N)=O)cc3C3CC3)cn2)cn1` [Example 173, 3-(Cyclopropyl)-4-{4-(4-(1-methyl-1H-pyrazol-4-yl)-1H-imidazol-1-yl)-3-(trifluoromethyl)-1H-pyrazolo[3,4-b]pyridin-1-yl}benzamide], the pIC50 in the assay with SK-BR-3 cells (setting [2]) was 7.10; in assay [1] it was 6.92.

Consider `COc1cc(C(N)=O)ccc1-n1nc(C(C)C)c2c(-n3cnc(-c4cccnc4)c3)ccnc21` [Example 142, 4-{3-Isopropyl-4-(4-(pyridin-3-yl)-1H-imidazol-1-yl)-1H-pyrazolo[3,4-b]pyridin-1-yl}-3-methoxybenzamide], for which the pIC50 in the assay with SK-BR-3 cells (setting [2]) was 6.66; in assay [1] it was 6.92.

Turning to `Cn1cc(-c2cn(-c3ccnc4c3c(C(F)(F)F)nn4-c3ccc(C(N)=O)cc3NCC(F)F)cn2)cn1` [Example 167, 3-(2,2-Difluoroethylamino)-4-{4-(4-(1-methyl-1H-pyrazol-4-yl)-1H-imidazol-1-yl)-3-(trifluoromethyl)-1H-pyrazolo[3,4-b]pyridin-1-yl}benzamide], the values for the pIC50 (in the assay on SK-BR-3 cells (setting [2]); in assay [1]) were 7.10 and 7.00, respectively.

With `CC(C)c1nn(-c2ccc(C(N)=O)c(NC3CCN(C(=O)CN)CC3)c2)c2nccc(-c3cnc4ccccc4c3)c12` [Example 79, 2-{1-(2-Aminoacetyl)piperidin-4-ylamino}-4-{3-isopropyl-4-(quinolin-3-yl)-1H-pyrazolo[3,4-b]pyridin-1-yl}benzamide], the pIC50 is 7.70 with SK-BR-3 cells (setting [2]) and 6.60 in assay [1].

In the case of `CC(C)c1nn(-c2ccc(C(N)=O)c(N[C@H]3CC[C@H](O)CC3)c2)c2nccc(-c3cccnc3)c12` [Example 7, 2-(Trans-4-hydroxycyclohexylamino)-4-{3-isopropyl-4-(pyridin-3-yl)-1H-pyrazolo[3,4-b]pyridin-1-yl}benzamide], the pIC50 is 6.64 in the assay with SK-BR-3 cells (setting [2]) and 6.47 in assay [1].

For the compound `CC(C)c1nn(-c2ccc(C(N)=O)c(NC3CCNCC3)c2)c2nccc(-c3cnc4ccccc4c3)c12` [Example 76, 4-{3-Isopropyl-4-(quinolin-3-yl)-1H-pyrazolo[3,4-b]pyridin-1-yl}-2-(piperidin-4-ylamino)-benzamide], the pIC50 in the assay with SK-BR-3 cells (setting [2]) was 7.40; in assay [1], 6.72.

Turning to `Cc1cc(C(N)=O)ccc1-n1nc(C(F)(F)F)c2c(-c3cnc4ccccc4c3)ccnc21` [Example 82, 3-Methyl-4-{4-(quinolin-3-yl)-3-(trifluoromethyl)-1H-pyrazolo[3,4-b]pyridin-1-yl}benzamide], the figures for the pIC50 (in the assay with SK-BR-3 cells (setting [2]); in assay [1]) were 6.64 and 6.08, respectively.

`CC(C)c1nn(-c2ccc(C(N)=O)c(NCc3ccccc3)c2)c2nccc(-c3cnc4ccccc4c3)c12` [Example 20, 2-(Benzylamino)-4-{3-isopropyl-4-(quinolin-3-yl)-1H-pyrazolo[3,4-b]pyridin-1-yl}benzamide]: the results for the pIC50 (in the assay with SK-BR-3 cells (setting [2]); in assay [1]) were 6.17 and 5.52, respectively.

For the compound `CNc1cc(-n2nc(C(C)C)c3c(-n4cnc(-c5cnn(C)c5)c4)ccnc32)ccc1C(N)=O` [Example 110, 4-{3-Isopropyl-4-(4-(1-methyl-1H-pyrazol-4-yl)-1H-imidazol-1-yl)-1H-pyrazolo[3,4-b]pyridin-1-yl}-2-(methylamino)benzamide], the pIC50 was 6.31 with SK-BR-3 cells (setting [2]) and 6.51 in assay [1].

As to `Cc1cc(C(N)=O)ccc1-n1nc(C(F)(F)F)c2c(-n3cnc(-c4cnn(C)c4)c3)ccnc21` [Example 154, 3-Methyl-4-{4-(4-(1-methyl-1H-pyrazol-4-yl)-1H-imidazol-1-yl)-3-(trifluoromethyl)-1H-pyrazolo[3,4-b]pyridin-1-yl}benzamide], the pIC50 was 6.92 in the assay on SK-BR-3 cells (setting [2]) and 6.85 in assay [1].

Regarding `CC(C)Nc1cc(-n2nc(C(F)(F)F)c3c(-n4cnc(-c5cnn(C)c5)c4)ccnc32)ccc1C(N)=O` [Example 160, 2-(Isopropylamino)-4-{4-(4-(1-methyl-1H-pyrazol-4-yl)-1H-imidazol-1-yl)-3-(trifluoromethyl)-1H-pyrazolo[3,4-b]pyridin-1-yl}benzamide], the pIC50 in the assay with SK-BR-3 cells (setting [2]) is 7.70; in assay [1], 6.80.

`NCC(=O)O[C@H]1CC[C@H](Nc2cc(-n3cc(C(F)(F)F)c4c(-c5cnc6ccccc6c5)ccnc43)ccc2C(N)=O)CC1` [Example 44, Trans-4-{2-carbamoyl-5-{4-(quinolin-3-yl)-3-(trifluoromethyl)-1H-pyrrolo[2,3-b]pyridin-1-yl}phenylamino}cyclohexyl-2-aminoacetate dimethanesulfonate]: the pIC50 in the assay with SK-BR-3 cells (SK-BR-3, 72 h) is 8.00; in assay [1], 6.89.

`CCCNc1cc(C(N)=O)ccc1-n1nc(C(C)C)c2c(-n3cnc(-c4cnn(C)c4)c3)ccnc21` [Example 122, 4-{3-Isopropyl-4-(4-(1-methyl-1H-pyrazol-4-yl)-1H-imidazol-1-yl)-1H-pyrazolo[3,4-b]pyridin-1-yl}-3-(propylamino)benzamide]: the pIC50 was 6.89 in the assay with SK-BR-3 cells (setting [2]) and 6.74 in assay [1].

Turning to `Cc1nn(-c2ccc(C(N)=O)c(N[C@H]3CC[C@H](O)CC3)c2)c2nccc(-c3cnc4ccccc4c3)c12` [Example 2, 2-(Trans-4-hydroxycyclohexylamino)-4-{4-(quinolin-3-yl)-3-methyl-1H-pyrazolo[3,4-b]pyridin-1-yl}benzamide], the pIC50 in the assay with SK-BR-3 cells (setting [2]) is 7.52; in assay [1], 6.89.

In the case of `CC(C)c1nn(-c2ccc(C(N)=O)c(NCCN(C)C)c2)c2nccc(-c3cnc4ccccc4c3)c12` [Example 27, 2-{2-(Dimethylamino)ethylamino}-4-{3-isopropyl-4-(quinolin-3-yl)-1H-pyrazolo[3,4-b]pyridin-1-yl}benzamide], the figures for the pIC50 (with SK-BR-3 cells (setting [2]); in assay [1]) were 6.89 and 6.62, respectively.

In the case of `CC(C)c1nn(-c2ccc(C(N)=O)c(NCC(F)(F)F)c2)c2nccc(-n3cnc(-c4cnn(C)c4)c3)c12` [Example 114, 4-{3-Isopropyl-4-(4-(1-methyl-1H-pyrazol-4-yl)-1H-imidazol-1-yl)-1H-pyrazolo[3,4-b]pyridin-1-yl}-2-(2,2,2-trifluoroethylamino)benzamide], the pIC50 with SK-BR-3 cells (setting [2]) is 6.74; in assay [1], 6.31.

As to `CCNc1cc(-n2nc(C(F)(F)F)c3c(-n4cnc(-c5cnn(C)c5)c4)ccnc32)ccc1C(N)=O` [Example 161, 2-(Ethylamino)-4-{4-(4-(1-methyl-1H-pyrazol-4-yl)-1H-imidazol-1-yl)-3-(trifluoromethyl)-1H-pyrazolo[3,4-b]pyridin-1-yl}benzamide], the pIC50 in the assay with SK-BR-3 cells (setting [2]) is 7.22; in assay [1] it was 6.77.

With `CC(C)c1nn(-c2ccc(C(N)=O)cc2CN2CCOCC2)c2nccc(-n3cnc(-c4cnn(C)c4)c3)c12` [Example 127, 4-{3-Isopropyl-4-(4-(1-methyl-1H-pyrazol-4-yl)-1H-imidazol-1-yl)-1H-pyrazolo[3,4-b]pyridin-1-yl}-3-(morpholinomethyl)benzamide], the negative-log IC50 (pIC50) in the assay on SK-BR-3 cells (setting [2]) is 5.81; in assay [1] it was 6.64.
